Measurements: patent US8546085B2, “Methods of identifying modulators of the bitter taste receptor TAS2R44” (Givaudan SA, priority 2008, dated 2013)
Where two headings read alike, the source gives them in different places.

Key:
TAS2R44 = molecular target: T1, TAS2R44 (Homo sapiens, UniProt P59538, L162M); assay: Fluo-4 calcium assay, antagonists of the response of TAS2R44 to steviol glycosides; type: cell-based
T1 construct: The full length gene of human TAS2R44 was amplified by polymerase chain reaction (PCR) using gene-specific primers that span the entire coding region; RSS tag (first 45 amino acids of rat somatostatin receptor subtype 3, plus EcoRI site) (N); expressed in transfected cells; host or cells: HEK293T/Galpha16-gustducin 44 cells, stably transfected with pcDNA3.1Zeo-TAS2R44
T1 sequence (P59538 with tags, fused parts or gaps L162M): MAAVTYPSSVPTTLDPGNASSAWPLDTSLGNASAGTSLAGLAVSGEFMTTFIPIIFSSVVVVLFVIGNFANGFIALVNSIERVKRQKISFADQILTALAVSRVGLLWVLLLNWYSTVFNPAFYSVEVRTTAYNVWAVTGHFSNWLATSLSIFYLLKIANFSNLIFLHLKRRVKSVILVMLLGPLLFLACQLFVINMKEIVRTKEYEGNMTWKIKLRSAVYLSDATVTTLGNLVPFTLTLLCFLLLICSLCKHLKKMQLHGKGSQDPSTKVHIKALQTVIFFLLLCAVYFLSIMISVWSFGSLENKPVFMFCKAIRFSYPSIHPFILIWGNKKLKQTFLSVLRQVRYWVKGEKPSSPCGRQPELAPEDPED
Procedure: All cells were HEK293T cells stably expressing Gα16-gustducin44, or expressing Gα16-gustducin44 and TAS2R44.
The method was carried out as described in example 3 subject to the following modifications:
The samples were tested with and without candidate bitter blocker and the signals were compared. The candidate bitter blocker was dissolved in dimethylsulfoxide (DMSO), and a negative control with equivalent DMSO concentration (0.02%) was performed accordingly to exclude a potential inhibitory effect of the solvent. Furthermore, a control with the relevant steviol glycoside and DMSO (0.02%) was performed accordingly (see table in example 5).
All data was calculated as ΔF/F0 and the standard deviation (STD) is indicated in each table, see results for the identified bitter blocker 4-(2,2,3-trimethyl-cyclopentyl)-butanoic acid below.

[1] = tested on: bitter taste/aftertaste of Rebaudioside A; assay: Sensory evaluation of bitter blocking by 8 bitter-sensitive panelists; type: in vivo, human
Procedure: 4-(2,2,3-trimethyl-cyclopentyl)-butanoic acid was sensorically evaluated for its bitter blocking characteristics by 8 bitter-sensitive panelists.
The following samples in water were evaluated and compared in their bitter taste/aftertaste: • Rebaudioside A (60 ppm) with bitter blocker (10 ppm) • Rebaudioside A (60 ppm) without bitter blocker • Rebaudioside A (230 ppm, isosweet to 7% sugar in water) • Rebaudioside A (230 ppm) with bitter blocker (10 ppm 30 ppm and 50 ppm)
20 ml of each sample was presented in random order.

- TAS2R44 ΔF/F0 (TAS2R44; 0.7 mM rebaudioside A (EC50) + bitter blocker 0.098 μM): 0.4022
- TAS2R44 ΔF/F0 (TAS2R44; 0.7 mM rebaudioside A (EC50) + bitter blocker 0.195 μM): 0.3678
- TAS2R44 ΔF/F0 (TAS2R44; 0.7 mM rebaudioside A (EC50) + bitter blocker 0.391 μM): 0.2825
- TAS2R44 ΔF/F0 (TAS2R44; 0.7 mM rebaudioside A (EC50) + bitter blocker 0.781 μM): 0.2156
- TAS2R44 ΔF/F0 (TAS2R44; 0.7 mM rebaudioside A (EC50) + bitter blocker 1.563 μM): 0.1328
- TAS2R44 ΔF/F0 (TAS2R44; 0.7 mM rebaudioside A (EC50) + bitter blocker 3.125 μM): 0.1225
- TAS2R44 ΔF/F0 (TAS2R44; 0.7 mM rebaudioside A (EC50) + bitter blocker 6.250 μM): 0.1794
- TAS2R44 ΔF/F0 (TAS2R44; 0.7 mM rebaudioside A (EC50) + bitter blocker 12.50 μM): 0.2056
- TAS2R44 ΔF/F0 (TAS2R44; 0.7 mM rebaudioside A (EC50) + bitter blocker 25.00 μM): 0.2275
- TAS2R44 ΔF/F0 (TAS2R44; 0.7 mM rebaudioside A (EC50) + bitter blocker 50.00 μM): 0.2347
- TAS2R44 ΔF/F0 (TAS2R44; 0.7 mM rebaudioside A (EC50) + bitter blocker 100.0 μM): 0.2238
- TAS2R44 ΔF/F0 (TAS2R44; 2.2 mM stevioside (EC50) + bitter blocker 0.098 μM): 0.665
- TAS2R44 ΔF/F0 (TAS2R44; 2.2 mM stevioside (EC50) + bitter blocker 0.195 μM): 0.596
- TAS2R44 ΔF/F0 (TAS2R44; 2.2 mM stevioside (EC50) + bitter blocker 0.391 μM): 0.555
- TAS2R44 ΔF/F0 (TAS2R44; 2.2 mM stevioside (EC50) + bitter blocker 0.781 μM): 0.491
- TAS2R44 ΔF/F0 (TAS2R44; 2.2 mM stevioside (EC50) + bitter blocker 1.563 μM): 0.431
- TAS2R44 ΔF/F0 (TAS2R44; 2.2 mM stevioside (EC50) + bitter blocker 3.125 μM): 0.430
- TAS2R44 ΔF/F0 (TAS2R44; 2.2 mM stevioside (EC50) + bitter blocker 6.250 μM): 0.328
- TAS2R44 ΔF/F0 (TAS2R44; 2.2 mM stevioside (EC50) + bitter blocker 12.50 μM): 0.293
- TAS2R44 ΔF/F0 (TAS2R44; 2.2 mM stevioside (EC50) + bitter blocker 25.00 μM): 0.252
- TAS2R44 ΔF/F0 (TAS2R44; 2.2 mM stevioside (EC50) + bitter blocker 50.00 μM): 0.238
- TAS2R44 ΔF/F0 (TAS2R44; 2.2 mM stevioside (EC50) + bitter blocker 100.0 μM): 0.212
- IC50 (TAS2R44; inhibition of the response to 0.7 mM rebaudioside A, read-out: IC50 concentration for rebaudioside): 357 nM
- IC50 (TAS2R44; inhibition of the response to 2.2 mM stevioside, read-out: IC50 concentration for stevioside): 578 nM
Compound: CC1CCC(CCCC(=O)O)C1(C)C (centres unmarked) [4-(2,2,3-trimethyl-cyclopentyl)-butanoic acid]
- effect on bitterness of Rebaudioside A ([1]; 10 ppm bitter blocker, in water): blocked the upfront bitterness but some lingering bitterness/aftertaste remained
- effect on bitterness of Rebaudioside A ([1]; 30 ppm bitter blocker, Rebaudioside A 230 ppm in water): improved effect to reduce the lingering bitterness/bitter aftertaste
- effect on bitterness of Rebaudioside A ([1]; 50 ppm bitter blocker, Rebaudioside A 230 ppm in water): improved effect to reduce the lingering bitterness/bitter aftertaste
- effect on bitterness of Rebaudioside A ([1]; 60 ppm, in water): completely blocked the bitterness including the bitter aftertaste
- effect on bitter taste/aftertaste of Rebaudioside A ([1]; all panelists, samples in water): blocked or significantly reduced the bitter taste/aftertaste
